Key:
cell membranes = settings: cited from earlier work
mammals = experiment: toxicity in mammals (unpublished proprietary studies); assay type: in vivo; settings: 2 g/kg of body weight
human cell systems = settings: cited from earlier work

OCCc1ccc(O)c(O)c1 [HT, Hydroxytyrosol]
permeation of the cell membranes, mechanism (cell membranes): passive mechanism | toxicity or evident alterations in the internal organs (mammals): does not cause toxicity or evident alterations in the internal organs | effect on cytotoxic effects of reactive oxygen species (human cell systems): effectively counteracts the cytotoxic effects

From patent US20100297330A1, “YOGHURT CONTAINING HYDROXYTYROSOL AND OTHER BIOPHENOLS WITH A PREVENTIVE NUTRITIONAL ACTIVITY BENEFICIAL TO HUMAN BEINGS” (priority 2007, published 2010)
